Measured values: patent publication US11174248B2, “Indazolyl-spiro[2.3]hexane-carbonitrile derivatives as LRRK2 inhibitors, pharmaceutical compositions, and uses thereof” (Merck Sharp & Dohme Corp., priority 2017, dated 2021)

Biological target: GST-tagged truncated human mutant G2019S LRRK2 (Homo sapiens (Human), UniProt Q5S007, G2019S)
Test: LRRK2 Km ATP LanthaScreen Assay
Format: biochemical
Settings: 134 μM ATP (Km ATP); fluorescein-labeled LRRKtide substrate; mean IC50 values
Method: Unless otherwise noted, all LRRK2 IC50 data presented in tables refers to the LRRK2 Km ATP LanthaScreen™ Assay that is described in the Biological Assay section.
Biological Assay: LRRK2 Km ATP LanthaScreen™ Assay
The LRRK2 kinase activity reported herein as IC50 values was determined with LanthaScreen™ technology from Life Technologies Corporation (Carlsbad, Calif.) using GST-tagged truncated human mutant G2019S LRRK2 in the presence of the fluorescein-labeled peptide substrate LRRKtide, also from Life Technologies. The data presented for the Km ATP LanthaScreen™ Assay represents mean IC50 values based on several test results and may have reasonable deviations depending on the specific conditions and reagents used. Assays were performed in the presence of 134 μM ATP (Km ATP). Upon completion, the assay was stopped and phosphorylated substrate detected with a terbium (Tb)-labeled anti-pERM antibody (cat. no. PV4898). The compound dose response was prepared by diluting a 10 mM stock of compound to a maximum concentration of 9.99 μM in 100% dimethylsulfoxide followed by custom fold serial dilution in dimethylsulfoxide nine times. Twenty nanoliters of each dilution was spotted via a Labcyte Echo onto a 384-well black-sided plate (Corning 3575) followed by 15 μl of a 1.25 nM enzyme solution in 1× assay buffer (50 mM Tris pH 8.5, 10 mM MgCl2, 0.01% Brij-35, 1 mM EGTA, 2 mM dithiothreitol, 0.05 mM sodium orthovanadate) Following a 15-minute incubation at room temperature, the kinase reaction was started with the addition of 5 μl of 400 nM fluorescein-labeled LRRKtide peptide substrate and 134 μM ATP solution in 1× assay buffer. The reaction was allowed to progress at ambient temperature for 90 minutes. The reaction was then stopped by the addition of 20 μl of TR-FRET Dilution Buffer (Life Technologies, Carlsbad, Calif.) containing 2 nM Tb-labeled anti-phospho LRRKtide antibody and 10 mM EDTA (Life Technologies, Carlsbad, Calif.). After an incubation of 1 hour at room temperature, the plate was read on an EnVision multimode plate reader (Perkin Elmer, Waltham, Mass.) with an excitation wavelength of 337 nm (Laser) and a reading emission at both 520 and 495 nm. Compound IC50s were interpolated from nonlinear regression best fits of the log of the final compound concentration, plotted as a function of the 520/495-nm emission ratio using Activity base. Abase uses a 4 parameter (4P) logistic fit based on the Levenberg-Marquardt algorithm.

Sequence of GST-tagged truncated human mutant G2019S LRRK2 (Q5S007 970-2527 G2019S): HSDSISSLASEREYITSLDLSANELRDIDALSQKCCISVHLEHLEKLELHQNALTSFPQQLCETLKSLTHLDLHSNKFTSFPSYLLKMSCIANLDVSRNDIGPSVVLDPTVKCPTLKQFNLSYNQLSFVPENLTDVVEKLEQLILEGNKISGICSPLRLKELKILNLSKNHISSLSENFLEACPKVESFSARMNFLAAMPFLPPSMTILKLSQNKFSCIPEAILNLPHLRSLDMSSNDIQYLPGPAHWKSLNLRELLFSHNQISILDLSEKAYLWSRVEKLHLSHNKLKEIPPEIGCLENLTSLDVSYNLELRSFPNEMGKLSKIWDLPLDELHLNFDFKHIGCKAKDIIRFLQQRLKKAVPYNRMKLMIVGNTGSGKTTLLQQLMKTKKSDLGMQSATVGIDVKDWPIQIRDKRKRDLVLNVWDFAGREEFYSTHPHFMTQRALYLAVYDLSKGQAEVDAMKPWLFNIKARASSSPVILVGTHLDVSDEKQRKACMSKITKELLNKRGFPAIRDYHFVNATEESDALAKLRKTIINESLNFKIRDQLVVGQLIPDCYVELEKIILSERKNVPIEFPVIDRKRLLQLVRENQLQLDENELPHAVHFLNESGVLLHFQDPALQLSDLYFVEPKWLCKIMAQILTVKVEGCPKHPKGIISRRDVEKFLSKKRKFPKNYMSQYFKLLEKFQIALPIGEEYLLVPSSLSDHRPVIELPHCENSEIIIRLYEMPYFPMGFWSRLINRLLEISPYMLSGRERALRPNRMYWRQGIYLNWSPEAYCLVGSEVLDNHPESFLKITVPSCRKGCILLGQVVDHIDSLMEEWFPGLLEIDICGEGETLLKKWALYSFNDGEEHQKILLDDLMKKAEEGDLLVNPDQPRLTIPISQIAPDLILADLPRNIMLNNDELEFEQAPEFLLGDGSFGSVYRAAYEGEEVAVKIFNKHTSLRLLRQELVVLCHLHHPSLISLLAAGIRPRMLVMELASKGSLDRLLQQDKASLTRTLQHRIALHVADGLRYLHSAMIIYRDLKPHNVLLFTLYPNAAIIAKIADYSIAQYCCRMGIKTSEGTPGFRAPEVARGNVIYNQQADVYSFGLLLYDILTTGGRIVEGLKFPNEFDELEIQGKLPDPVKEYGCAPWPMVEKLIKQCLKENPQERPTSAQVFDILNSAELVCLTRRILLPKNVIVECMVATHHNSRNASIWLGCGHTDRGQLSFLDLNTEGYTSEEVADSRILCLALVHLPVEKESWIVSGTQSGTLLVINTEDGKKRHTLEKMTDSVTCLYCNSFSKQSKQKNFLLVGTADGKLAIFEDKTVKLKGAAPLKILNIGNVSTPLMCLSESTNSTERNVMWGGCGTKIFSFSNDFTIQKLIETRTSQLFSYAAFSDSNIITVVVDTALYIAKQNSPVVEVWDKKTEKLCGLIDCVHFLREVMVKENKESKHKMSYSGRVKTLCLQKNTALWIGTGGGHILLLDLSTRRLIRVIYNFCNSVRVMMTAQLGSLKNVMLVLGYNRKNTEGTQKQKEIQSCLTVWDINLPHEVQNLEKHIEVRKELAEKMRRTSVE

| Structure (SMILES) | IC50 [nM] |
| --- | --- |
| N#CC1(c2ccc3cnn(-c4cc(N5CC(O)(C6CC6)C5)ncn4)c3c2)CC2(CC2)C1 [Example 27, 5-(1-(6-(3-cyclopropyl-3-hydroxyazetidin-1-yl)pyrimidin-4-yl)-1H-indazol-6-yl)spiro[2.3]hexane-5-carbonitrile] | 7.4 |
| CN1CCOC2(C1)CN(c1cc(-n3ncc4ccc(C5(C#N)CC6(CC6)C5)cc43)ncn1)C2 [Example 28, 5-(1-(6-(8-methyl-5-oxa-2,8-diazaspiro[3.5]nonan-2-yl)pyrimidin-4-yl)-1H-indazol-6-yl)spiro[2.3]hexane-5-carbonitrile] | 1.3 |
| CNc1nc(N2CC3(C(C)(C)O)CC2C3)cc(-n2ncc3ccc(C4(C#N)CC5(CC5)C4)cc32)n1 [Example 29, 5-(1-(6-(4-(2-hydroxypropan-2-yl)-2-azabicyclo[2.1.1]hexan-2-yl)-2-(methylamino)pyrimidin-4-yl)-1H-indazol-6-yl)spiro[2.3]hexane-5-carbonitrile] | 16.7 |
| COc1nc(N2CC3(C(C)(C)O)CC2C3)cc(-n2ncc3ccc(C4(C#N)CC5(CC5)C4)cc32)n1 [Example 30, 5-(1-(6-(4-(2-hydroxypropan-2-yl)-2-azabicyclo[2.1.1]hexan-2-yl)-2-methoxypyrimidin-4-yl)-1H-indazol-6-yl)spiro[2.3]hexane-5-carbonitrile] | 12.3 |
| C[C@H]1CN(c2cc(-n3ncc4ccc(C5(C#N)CC6(CC6)C5)cc43)ccn2)CCN1C1COC1 [Example 31, (S)-5-(1-(2-(3-methyl-4-(oxetan-3-yl)piperazin-1-yl)pyridin-4-yl)-1H-indazol-6-yl)spiro[2.3]hexane-5-carbonitrile] | 11.3 |
| N#CC1(c2ccc3cnn(-c4ccnc(N5CC6(CO)CC5C6)c4)c3c2)CC2(CC2)C1 [Example 32, 5-(1-(2-(4-(hydroxymethyl)-2-azabicyclo[2.1.1]hexan-2-yl)pyridin-4-yl)-1H-indazol-6-yl)spiro[2.3]hexane-5-carbonitrile] | 10 |
| CC1(O)CC2(CN(c3cc(-n4ncc5ccc(C6(C#N)CC7(CC7)C6)cc54)ncn3)C2)C1 (stereo not drawn) [Example 33, 5-(1-(6-(6-hydroxy-6-methyl-2-azaspiro[3.3]heptan-2-yl)pyrimidin-4-yl)-1H-indazol-6-yl)spiro[2.3]hexane-5-carbonitrile] | 1 |
| C[C@H]1CN(c2cc(-n3ncc4ccc(C5(C#N)CC6(CC6)C5)cc43)ncn2)CCO1 [Example 42, (S)-5-(1-(6-(2-methyl-morpholino)pyrimidin-4-yl)-1H-indazol-6-yl)spiro[2.3]hexane-5-carbonitrile] | 5.6 |
| CC(C)(O)[C@@H]1CN(c2cc(-n3ncc4ccc(C5(C#N)CC6(CC6)C5)cc43)ncn2)CCO1 [Example 43, (S)-5-(1-(6-(2-(2-hydroxypropan-2-yl)morpholino)pyrimidin-4-yl)-1H-indazol-6-yl)spiro[2.3]hexane-5-carbonitrile] | 0.9 |
| N#CC1(c2ccc3cnn(-c4cc(N5CCC(C6COC6)CC5)ncn4)c3c2)CC2(CC2)C1 [Example 44, 5-(1-(6-(4-(oxetan-3-yl)piperidin-1-yl)pyrimidin-4-yl)-1H-indazol-6-yl)spiro[2.3]hexane-5-carbonitrile] | 5 |
| N#CC1(c2ccc3cnn(-c4cc(N5CCN6CCOC[C@@H]6C5)ncn4)c3c2)CC2(CC2)C1 [Example 45, (S)-5-(1-(6-(hexahydropyrazino[2,1-c][1,4]oxazin-8(1H)-yl)pyrimidin-4-yl)-1H-indazol-6-yl)spiro[2.3]hexane-5-carbonitrile] | 2 |
| N#CC1(c2ccc3cnn(-c4cc(N5CCN6CCOC[C@H]6C5)ncn4)c3c2)CC2(CC2)C1 [Example 46, (R)-5-(1-(6-(hexahydropyrazino[2,1-c][1,4]oxazin-8(1H)-yl)pyrimidin-4-yl)-1H-indazol-6-yl)spiro[2.3]hexane-5-carbonitrile] | 7 |
| Cc1nc(N2CCN3CCOC[C@@H]3C2)cc(-n2ncc3ccc(C4(C#N)CC5(CC5)C4)cc32)n1 [Example 47, (S)-5-(1-(6-(hexahydropyrazino[2,1-c][1,4]oxazin-8(1H)-yl)-2-methylpyrimidin-4-yl)-1H-indazol-6-yl)spiro[2.3]hexane-5-carbonitrile] | 3.2 |
| Cc1nc(N2CCN3CCOC[C@@H]3C2)cc(-n2ncc3cnc(C4(C#N)CC5(CC5)C4)cc32)n1 [Example 48, (S)-5-(1-(6-(hexahydropyrazino[2,1-c][1,4]oxazin-8(1H)-yl)-2-methylpyrimidin-4-yl)-1H-pyrazolo[4,3-c]pyridin-6-yl)spiro[2.3]hexane-5-carbonitrile] | 20.2 |
| N#CC1(c2cc3c(cn2)cnn3-c2cc(N3CCN4CCOC[C@@H]4C3)ncn2)CC2(CC2)C1 [Example 49, (S)-5-(1-(6-(hexahydropyrazino[2,1-c][1,4]oxazin-8(1H)-yl)pyrimidin-4-yl)-1H-pyrazolo[4,3-c]pyridin-6-yl)spiro[2.3]hexane-5-carbonitrile] | 8.8 |
